Where a name gives a salt, the structure may show the parent alone.
Test system: ZIKV replicon in Vero cells
Test: ZIKV Replication Inhibition Assay (replicon, NanoLuc)
Details: Zika virus, Vero, 72 h, read-out: Zika Replicon EC50

Structure (SMILES)	EC50
C[C@@H](c1ccc(-c2cncnc2)cc1)[n+]1cc([N-]C(=O)Nc2cncc(C(F)(F)F)c2)on1 [Example 77, (S)-(3-(1-(4-(pyrimidin-5-yl)phenyl)ethyl)-1,2,3-oxadiazol-3-ium-5-yl)((5-(trifluoromethyl)pyridin-3-yl)carbamoyl)amide]	0.1 to 1 µM
O=C([N-]c1c[n+](Cc2ccc(-c3cnn(C4CCNCC4)c3)nc2)no1)Nc1cccc(C(F)(F)F)c1 [Example 117, (3-((6-(1-(piperidin-4-yl)-1H-pyrazol-4-yl)pyridin-3-yl)methyl)-1,2,3-oxadiazol-3-ium-5-yl)((3-(trifluoromethyl)phenyl)carbamoyl)amide]	1 to 20 µM
N#Cc1ncncc1-c1ccc(C[n+]2cc([N-]C(=O)Nc3cccc(C(F)(F)F)c3)on2)cc1 [Example 106, (3-(4-(4-cyanopyrimidin-5-yl)benzyl)-1,2,3-oxadiazol-3-ium-5-yl)((3-(trifluoromethyl)phenyl)carbamoyl)amide]	0.1 to 1 µM
O=C([N-]c1c[n+](Cc2ccc3ccccc3c2)no1)Nc1cccc(C(F)(F)F)c1 [Example 18, (3-(naphthalen-2-ylmethyl)-1,2,3-oxadiazol-3-ium-5-yl)((3-(trifluoromethyl)phenyl)carbamoyl)amide]	1 to 20 µM
Cc1ncnc(OCCO)c1-c1ccc(C[n+]2cc([N-]C(=O)Nc3cccc(C(F)(F)F)c3)on2)cc1 [Example 112, (3-(4-(4-(2-hydroxyethoxy)-6-methylpyrimidin-5-yl)benzyl)-1,2,3-oxadiazol-3-ium-5-yl)((3-(trifluoromethyl)phenyl)carbamoyl)amide]	< 0.1 µM
O=C([N-]c1c[n+](Cc2ccc(-c3ccccc3)cc2)no1)Nc1cccc(C(F)(F)F)c1 [Example 17, (3-([1,1′-Biphenyl]-4-ylmethyl)-1,2,3-oxadiazol-3-ium-5-yl)((3-(trifluoromethyl)phenyl)carbamoyl)amide]	0.1 to 1 µM
O=C([N-]c1c[n+](Cc2ccc(-c3ccsc3)cc2)no1)Nc1cccc(C(F)(F)F)c1 [Example 20, (3-(4-(thiophen-3-yl)benzyl)-1,2,3-oxadiazol-3-ium-5-yl)((3(trifluoromethyl)phenyl)carbamoyl)amide]	0.1 to 1 µM
CC(Cc1ccccc1)[n+]1cc([N-]C(=O)Nc2ccc3ncccc3c2)on1 (stereo not drawn) [Example 12, (3-(1-phenylpropan-2-yl)-1,2,3-oxadiazol-3-ium-5-yl)(quinolin-6-ylcarbamoyl) amide]	> 20 µM
CC(C[n+]1cc([N-]C(=O)Nc2cccc(C(F)(F)F)c2)on1)c1ccccc1 (stereo not drawn) [Example 28, (3-(2-phenylpropyl)-1,2,3-oxadiazol-3-ium-5-yl)((3-(trifluoromethyl)phenyl)carbamoyl)amide]	0.1 to 1 µM
Cc1ncnc(C)c1-c1ccc(C[n+]2cc([N-]C(=O)Nc3cccc(C(F)(F)F)c3)on2)cc1 [Example 81, (3-(4-(4,6-dimethylpyrimidin-5-yl)benzyl)-1,2,3-oxadiazol-3-ium-5-yl)((3-(trifluoromethyl)phenyl)carbamoyl)amide]	< 0.1 µM
O=C([N-]c1c[n+](Cc2cccnc2)no1)Nc1cccc(C(F)(F)F)c1 [Example 29, (3-(pyridin-3-ylmethyl)-1,2,3-oxadiazol-3-ium-5-yl)((3-(trifluoromethyl)phenyl)carbamoyl)amide]	1 to 20 µM
O=C([N-]c1c[n+](Cc2ccc(-c3cncnc3C3CC3)cc2)no1)Nc1cccc(C(F)(F)F)c1 [Example 91, (3-(4-(4-cyclopropylpyrimidin-5-yl)benzyl)-1,2,3-oxadiazol-3-ium-5-yl)((3-(trifluoromethyl)phenyl)carbamoyl)amide]	0.1 to 1 µM
O=C([N-]c1c[n+](Cc2ccc(-c3cnn(C4CCNCC4)c3)cn2)no1)Nc1cccc(C(F)(F)F)c1 [Example 120, (3-((5-(1-(piperidin-4-yl)-1H-pyrazol-4-yl)pyridin-2-yl)methyl)-1,2,3-oxadiazol-3-ium-5-yl)((3-(trifluoromethyl)phenyl)carbamoyl)amide]	1 to 20 µM
Cc1noc(C)c1-c1ccc(C[n+]2cc([N-]C(=O)Nc3cccc(C(F)(F)F)c3)on2)cn1 [Example 104, (3-((6-(3,5-dimethylisoxazol-4-yl)pyridin-3-yl)methyl)-1,2,3-oxadiazol-3-ium-5-yl)((3-(trifluoromethyl)phenyl)carbamoyl)amide]	< 0.1 µM
Cc1cc(C[n+]2cc([N-]C(=O)Nc3cccc(C(F)(F)F)c3)on2)ccc1-c1c(C)noc1C [Example 88, (3-(4-(3,5-Dimethylisoxazol-4-yl)-3-methylbenzyl)-1,2,3-oxadiazol-3-ium-5-yl)((3-(trifluoromethyl)phenyl)carbamoyl)amide]	< 0.1 µM
NC[C@@H](c1ccc(-c2cncnc2)cc1)[n+]1cc([N-]C(=O)Nc2cccc(C(F)(F)F)c2)on1 [Example 102, (R)-(3-(2-amino-1-(4-(pyrimidin-5-yl)phenyl)ethyl)-1,2,3-oxadiazol-3-ium-5-yl)((3-(trifluoromethyl)phenyl)carbamoyl)amide formate]	0.1 to 1 µM
CC(Cc1ccccc1)[n+]1cc([N-]C(=O)Nc2cccc(Cl)c2)on1 (stereo not drawn) [Example 8, ((3-chlorophenyl)carbamoyl)(3-(1-phenylpropan-2-yl)-1,2,3-oxadiazol-3-ium-5-yl)amide]	> 20 µM

Structure (SMILES)	EC50
C=C(c1ccccc1)[n+]1cc([N-]C(=O)Nc2cccc(C(F)(F)F)c2)on1 [Example 35, (3-(1-Phenylvinyl)-1,2,3-oxadiazol-3-ium-5-yl)((3-(trifluoromethyl)phenyl)carbamoyl)amide]	1 to 20 µM
O=C([N-]c1c[n+](Cc2ccc(-c3cccc4c3CNC4)cn2)no1)Nc1cccc(C(F)(F)F)c1 [Example 119, (3-((5-(isoindolin-4-yl)pyridin-2-yl)methyl)-1,2,3-oxadiazol-3-ium-5-yl)((3-(trifluoromethyl)phenyl)carbamoyl)amide]	0.1 to 1 µM
C[C@@H](c1ccc(Br)cc1)[n+]1cc([N-]C(=O)Nc2cncc(C(F)(F)F)c2)on1 [Example 76, (S)-(3-(1-(4-bromophenyl)ethyl)-1,2,3-oxadiazol-3-ium-5-yl)((5-(trifluoromethyl)pyridin-3-yl)carbamoyl)amide]	0.1 to 1 µM
Cc1cnncc1-c1ccc(C[n+]2cc([N-]C(=O)Nc3cccc(C(F)(F)F)c3)on2)cc1 [Example 93, (3-(4-(5-methylpyridazin-4-yl)benzyl)-1,2,3-oxadiazol-3-ium-5-yl)((3-(trifluoromethyl)phenyl)carbamoyl)amide]	< 0.1 µM
CC(=O)NC[C@H](Cc1ccc(-c2ccccc2)cc1)[n+]1cc([N-]C(=O)Nc2cccc(C(F)(F)F)c2)on1 [Example 70, (S)-(3-(1-(1,1′-biphenyl-4-yl)-3-acetamidopropan-2-yl)-1,2,3-oxadiazol-3-ium-5-yl)((3-(trifluoromethyl)phenyl)carbamoyl)amide]	> 20 µM
Cc1ncncc1-c1cccc(C[n+]2cc([N-]C(=O)Nc3cccc(C(F)(F)F)c3)on2)c1 [Example 83, (3-(3-(4-methylpyrimidin-5-yl)benzyl)-1,2,3-oxadiazol-3-ium-5-yl)((3-(trifluoromethyl)phenyl)carbamoyl)amide]	0.1 to 1 µM
O=C([N-]c1c[n+]([C@@H](CO)c2ccccc2)no1)Nc1cccc(C(F)(F)F)c1 [Example 30, (R)-(3-(2-hydroxy-1-phenylethyl)-1,2,3-oxadiazol-3-ium-5-yl)((3-(trifluoromethyl)phenyl)carbamoyl)amide]	1 to 20 µM
NCc1ccccc1-c1ccc(C[n+]2cc([N-]C(=O)Nc3cccc(C(F)(F)F)c3)on2)nc1 [Example 121, (3-((5-(2-(aminomethyl)phenyl)pyridin-2-yl)methyl)-1,2,3-oxadiazol-3-ium-5-yl)((3-(trifluoromethyl)phenyl)carbamoyl)amide]	0.1 to 1 µM
Cc1noc(C)c1-c1cnc(C[n+]2cc([N-]C(=O)Nc3cccc(C(F)(F)F)c3)on2)cn1 [Example 169, (3-((5-(3,5-dimethylisoxazol-4-yl)pyrazin-2-yl)methyl)-1,2,3-oxadiazol-3-ium-5-yl)((3-(trifluoromethyl)phenyl)carbamoyl)amide]	0.1 to 1 µM
COc1ncc(-c2ccc(C[n+]3cc([N-]C(=O)Nc4ccccc4)on3)cc2)c(C)n1 [Example 115, (3-(4-(2-methoxy-4-methylpyrimidin-5-yl)benzyl)-1,2,3-oxadiazol-3-ium-5-yl)(phenylcarbamoyl)amide]	1 to 20 µM
Cc1noc(C)c1-c1ccc(C[n+]2cc([N-]C(=O)Nc3nccc(C(F)(F)F)n3)on2)nc1 [Example 171, (3-((5-(3,5-dimethylisoxazol-4-yl)pyridin-2-yl)methyl)-1,2,3-oxadiazol-3-ium-5-yl)((4-(trifluoromethyl)pyrimidin-2-yl)carbamoyl)amide]	1 to 20 µM
CC(Cc1ccccc1)[n+]1cc([N-]C(=O)Nc2ccc3ccccc3c2)on1 (stereo not drawn) [Example 3, (Naphthalen-2-ylcarbamoyl)(3-(1-phenylpropan-2-yl)-1,2,3-oxadiazol-3-ium-5-yl)amide]	> 20 µM
Cc1ncn(C)c1-c1ccc(C[n+]2cc([N-]C(=O)Nc3cccc(C(F)(F)F)c3)on2)nc1 [Example 118, (3-((5-(1,4-dimethyl-1H-imidazol-5-yl)pyridin-2-yl)methyl)-1,2,3-oxadiazol-3-ium-5-yl)((3-(trifluoromethyl)phenyl)carbamoyl)amide]	0.1 to 1 µM
O=C([N-]c1c[n+](Cc2ccc(-c3ccc(CN4CCOCC4)cc3)cc2)no1)Nc1cccc(C(F)(F)F)c1 [Example 56, (3-((4′-(morpholinomethyl)-[1,1′-biphenyl]-4-yl)methyl)-1,2,3-oxadiazol-3-ium-5-yl)((3-(trifluoromethyl)phenyl)carbamoyl)amide]	1 to 20 µM
NC[C@H](Cc1ccccc1)[n+]1cc([N-]C(=O)Nc2cccc(C(F)(F)F)c2)on1 [Example 54, (S)-(3-(1-amino-3-phenylpropan-2-yl)-1,2,3-oxadiazol-3-ium-5-yl)((3-(trifluoromethyl)phenyl)carbamoyl)amide formate]	> 20 µM
COc1ncnc(C)c1-c1ccc(C[n+]2cc([N-]C(=O)Nc3cccc(C(F)(F)F)c3)on2)cc1 [Example 111, (3-(4-(4-methoxy-6-methylpyrimidin-5-yl)benzyl)-1,2,3-oxadiazol-3-ium-5-yl)((3-(trifluoromethyl)phenyl)carbamoyl)amide]	< 0.1 µM
